Experimental data from US20070049635A1 (priority 2003, published 2007).
Like-named read-outs stand apart in the source and are kept apart here.

Columns and labels:
Pyricularia oryzae [1] = type: in vivo; settings: wettable powder diluted to 200 ppm sprayed on rice pots (Koshihikari, 2-leaf stage); spore spray-inoculation; examined after 7 days
Pyricularia oryzae [2] = type: in vivo; settings: granules applied to water surface at 1.5 kg/10 ares; rice Koshihikari; inoculated 30 days after application; lesions examined after 1 week

| Molecule | Effect (preventive value) (Pyricularia oryzae [1]) | Effect (preventive value) (Pyricularia oryzae [2]) |
| --- | --- | --- |
| Cc1ccc(C(=O)NCC(NC(=O)OC(CF)CF)C(C)C)cc1 (stereo not shown) [compound 9] | A (80% or more) |  |
| Cc1ccc(C(=O)NCC(NC(=O)OCCC(F)(F)C(F)(F)C(F)(F)C(F)(F)F)C(C)C)cc1 (stereo not shown) [compound 14] | B (50% or more and less than 80%) |  |
| CC(C)C(CNC(=O)c1cc2ccccc2s1)NC(=O)OCC(F)(F)F (stereo not shown) [compound 34] | A (80% or more) |  |
| Cc1ccc(C(=O)NCC(NC(=O)OCC(F)(F)F)C2CCCC2)cc1 (stereo not shown) [compound 36] | A (80% or more) |  |
| Cc1ccc(C(=O)NCC(NC(=O)OC(CBr)CBr)C(C)C)cc1 (stereo not shown) [compound 11] | B (50% or more and less than 80%) |  |
| CCC(C)C(CNC(=O)c1cc2ccccc2o1)NC(=O)OCC(F)(F)F (stereo not shown) [compound 32] | A (80% or more) |  |
| CC(C)C(CNC(=O)c1nc2ccc(F)cc2s1)NC(=O)OCC(F)(F)F (stereo not shown) [compound 37] | A (80% or more) |  |
| N-(2,2,2-trichloroethyloxycarbonyl)-N′-(4-methylbenzoyl)-3-methyl-1,2-butanediamine [Compound No. 7] | A (80% or more) |  |
| Cc1ccc(C(=O)NCC(NC(=O)OCC(F)(F)F)C(C)(C)C)cc1 (stereo not shown) [compound 24] | A (80% or more) | A (80% or more) |
| CCC(C)C(CNC(=O)c1ccc(C)cc1)NC(=O)OCC(F)(F)F (stereo not shown) [compound 25] | A (80% or more) | A (80% or more) |
| CC(C)C(CNC(=O)c1nc2ccccc2s1)NC(=O)OCC(F)(F)F (stereo not shown) [compound 38] | A (80% or more) |  |
| Cc1ccc(C(=O)NCC(NC(=O)OCCCCl)C(C)C)cc1 (stereo not shown) [compound 10] | A (80% or more) |  |
| Cc1ccc(C(=O)NCC(NC(=O)OCCBr)C(C)C)cc1 (stereo not shown) [compound 4] | A (80% or more) |  |
| C=C(Cl)COC(=O)NC(CNC(=O)c1ccc(C)cc1)C(C)C (stereo not shown) [compound 15] | A (80% or more) | A (80% or more) |
| Cc1ccc(C(=O)NCC(NC(=O)OCCCl)C(C)C)cc1 (stereo not shown) [compound 3] | A (80% or more) |  |
| Cc1ccc(C(=O)NC(CNC(=O)OC2CCCCC2Cl)C(C)C)cc1 (stereo not shown) [Compound No. 17, N-(2-chlorocyclohexyloxycarbonyl)-N′-(4-methylbenzoyl)-3-methyl-1,2-butanediamine] | A (80% or more) |  |
| CC(C)C(CNC(=O)c1cc2ccccc2o1)NC(=O)OCC(F)(F)F (stereo not shown) [compound 28] | A (80% or more) | A (80% or more) |
| CSCC(C)OC(=O)NC(CNC(=O)c1ccc(C)cc1)C(C)C (stereo not shown) [Formula (8), reference compound] | C (less than 50%) | C (less than 50%) |
| Cc1ccc(C(=O)NCC(NC(=O)OC2CCCCC2F)C(C)C)cc1 (stereo not shown) [compound 16] | A (80% or more) |  |
| Cc1ccc(C(=O)NCC(NC(=O)Oc2ccc3ccccc3c2)C(C)C)cc1 (stereo not shown) [Formula (7), reference compound] | C (less than 50%) | C (less than 50%) |
| Cc1ccc(C(=O)NC(CNC(=O)OC(C(F)(F)F)C(F)(F)F)C(C)C)cc1 (stereo not shown) [Compound No. 8, N-(1,1,1,3,3,3-hexafluoro-2-propyloxycarbonyl)-N′-(4-methylbenzoyl)-3-methyl-1,2-butanediamine] | A (80% or more) |  |
| Cc1ccc(C(=O)NCC(NC(=O)OCCF)C(C)C)cc1 (stereo not shown) [compound 2] | A (80% or more) | A (80% or more) |
| CCC(C)C(CNC(=O)c1nc2ccccc2s1)NC(=O)OCC(F)(F)F (stereo not shown) [compound 33] | A (80% or more) |  |
| CC(C)(C)C(CNC(=O)c1cc2ccccc2o1)NC(=O)OCC(F)(F)F (stereo not shown) [compound 31] | A (80% or more) | A (80% or more) |
| N-(chloromethyloxycarbonyl)-N′-(4-methylbenzoyl)-3-methyl-1,2-butanediamine [Compound No. 1] |  | A (80% or more) |
| CCC(CC)C(CNC(=O)c1ccc(C)cc1)NC(=O)OCC(F)(F)F (stereo not shown) [compound 39] | A (80% or more) |  |
| Cc1ccc(C(=O)NCC(NC(=O)OCCI)C(C)C)cc1 (stereo not shown) [compound 5] | A (80% or more) |  |
| Cc1ccc(C(=O)NCC(NC(=O)OCC(F)(F)C(F)(F)C(F)(F)F)C(C)C)cc1 (stereo not shown) [compound 13] | A (80% or more) |  |
| Cc1ccc(C(=O)NCC(NC(=O)OC(C)C(F)(F)F)C(C)C)cc1 (stereo not shown) [compound 30] | A (80% or more) | A (80% or more) |
| N-(2,2,2-trifluoroethyloxycarbonyl)-N′-(4-methylbenzoyl)-3-methyl-1,2-butanediamine [Compound No. 6] | A (80% or more) | A (80% or more) |
